Results from BindingDB's records for doi:10.1016/j.ejmech.2020.113107 (Yantai University, 2021).

Experiments:
[1] = Reversal of P-glycoprotein mediated multidrug resistance in human KBV cells assessed as reversal of resistance to paclitaxel-induced cytotoxicity by measuring paclitaxel IC50 at 5 uM measured after 72 hrs by MTT assay
[2] = Reversal of P-glycoprotein mediated multidrug resistance in human MCF-7T cells assessed as reversal of resistance to paclitaxel-induced cytotoxicity by measuring paclitaxel IC50 at 10 uM measured after 72 hrs by MTT assay
[3] = Reversal of P-glycoprotein mediated multidrug resistance in human KBV cells assessed as reversal of resistance to vincristine-induced cytotoxicity by measuring vincristine IC50 at 5 uM measured after 72 hrs by MTT assay
[4] = Reversal of P-glycoprotein mediated multidrug resistance in human KBV cells assessed as reversal of resistance to paclitaxel-induced cytotoxicity by measuring paclitaxel IC50 at 10 uM measured after 72 hrs by MTT assay
[5] = Reversal of P-glycoprotein mediated multidrug resistance in human KBV cells assessed as reversal of resistance to vincristine-induced cytotoxicity by measuring vincristine IC50 at 10 uM measured after 72 hrs by MTT assay
[6] = Reversal of P-glycoprotein mediated multidrug resistance in human MCF-7T cells assessed as reversal of resistance to vincristine-induced cytotoxicity by measuring vincristine IC50 at 5 uM measured after 72 hrs by MTT assay
[7] = Reversal of P-glycoprotein mediated multidrug resistance in human MCF-7T cells assessed as reversal of resistance to paclitaxel-induced cytotoxicity by measuring paclitaxel IC50 at 5 uM measured after 72 hrs by MTT assay
[8] = Reversal of P-glycoprotein mediated multidrug resistance in human MCF-7T cells assessed as reversal of resistance to vincristine-induced cytotoxicity by measuring vincristine IC50 at 10 uM measured after 72 hrs by MTT assay

## COc1cc2c(cc1OC)CN(CCc1ccc(NC(=O)c3cc(OC)c(OC)cc3NC(=O)c3cnc4ccccc4c3)cc1)CC2
[1]
  IC50: 7.6 nM
[2]
  IC50: 0.26 nM
[3]
  IC50: 3.3 nM
[4]
  IC50: 4.5 nM
[5]
  IC50: 2.1 nM
[6]
  IC50: 0.71 nM
[7]
  IC50: 3.3 nM
[8]
  IC50: 0.22 nM

## CC1(C)CC[C@]2(C(=O)OCc3ccccc3)CC[C@]3(C)C(=CC[C@@H]4[C@@]5(C)Cc6nccnc6[C@@](C)(CO)[C@@H]5CC[C@]43C)[C@@H]2C1
[1]
  IC50: 59 nM
[2]
  IC50: 1.5 nM
[3]
  IC50: 17 nM
[4]
  IC50: 16 nM
[5]
  IC50: 2.2 nM
[6]
  IC50: 6.9 nM
[7]
  IC50: 13 nM
[8]
  IC50: 0.03 nM

## CC1(C)CC[C@]2(C(=O)OCc3ccccc3)CC[C@]3(C)C(=CC[C@@H]4[C@@]5(C)Cc6nccnc6[C@@](C)(COC(=O)CCC(=O)OCCOCCOCCOCCO)[C@@H]5CC[C@]43C)[C@@H]2C1
[1]
  IC50: 22 nM
[2]
  IC50: 0.89 nM
[3]
  IC50: 4 nM
[4]
  IC50: 4.6 nM
[5]
  IC50: 0.79 nM
[6]
  IC50: 5.3 nM
[7]
  IC50: 5.4 nM
[8]
  IC50: 0.04 nM
